# Measurements reported in ChEMBL document CHEMBL1201862, “PubChem BioAssay data set” (2004).
#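 Interpolation was linear, between the two tested concentrations surrounding the appropriate level; five concentrations were tested over 48 hours in 96-well plates. The concentration for 50% growth inhibition is given as GI50.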 Active and inactive are the calls of the source. No stated cut-off is given here; in the data, active = GI50 up to about 1.1 µM and inactive = higher.
# Tests used:
# Assay in all cases: NCI tumour cell line growth inhibition, 48 h
# A549 = test system: A549
# CCRF-CEM = test system: CCRF-CEM
# EKVX = test system: EKVX
# HCT-15 = test system: HCT-15
# HT-29 = test system: HT-29
# K562 = test system: K562
# M14 = test system: M14
# MOLT-4 = test system: MOLT-4
# OVCAR-5 = test system: OVCAR-5
# RXF 393 = test system: RXF 393
# SK-MEL-28 = test system: SK-MEL-28
# SNB-19 = test system: SNB-19
# SNB-75 = test system: SNB-75
# TK-10 = test system: TK-10
# UACC-62 = test system: UACC-62
# SR = test system: SR
Compound,GI50 (A549),GI50 (CCRF-CEM),GI50 (EKVX),GI50 (HCT-15),GI50 (HT-29),GI50 (K562),GI50 (M14),GI50 (MOLT-4),GI50 (OVCAR-5),GI50 (RXF 393),GI50 (SK-MEL-28),GI50 (SNB-19),GI50 (SNB-75),GI50 (TK-10),GI50 (UACC-62),GI50 (SR)
COc1cc2cc(OC(C)=O)c3cc4c(cc3c2c(OC)c1OC)OCO4,> 100 µM (inactive),> 100 µM (inactive),> 100 µM (inactive),> 100 µM,> 100 µM (inactive),> 100 µM (inactive),> 100 µM (inactive),> 100 µM (inactive),> 100 µM (inactive),> 100 µM (inactive),> 100 µM (inactive),> 100 µM (inactive),> 100 µM (inactive),> 100 µM (inactive),–,–
CC1(C)C(c2ccccc2)C12CCC1(C2=O)C(c2ccccc2)C1(C)C (configuration not stated),26.4 µM (inactive),18.9 µM (inactive),25.1 µM (inactive),24.2 µM,16.1 µM (inactive),20 µM (inactive),23.3 µM (inactive),18.9 µM (inactive),24.7 µM (inactive),20.1 µM (inactive),27.2 µM (inactive),28.8 µM (inactive),30.4 µM (inactive),34.5 µM (inactive),32 µM (inactive),–
C=CCOCCCCC(C(C)=O)C(=O)OC (configuration not stated),> 100 µM (inactive),> 100 µM (inactive),–,> 100 µM,> 100 µM (inactive),> 100 µM (inactive),> 100 µM (inactive),> 100 µM (inactive),> 100 µM (inactive),> 100 µM (inactive),> 100 µM (inactive),> 100 µM (inactive),> 100 µM (inactive),> 100 µM (inactive),> 100 µM (inactive),> 100 µM (inactive)
Cc1cc(Cl)ccc1NC(=O)CC1SC(N)=NC1=O (configuration not stated),> 100 µM (inactive),66.4 µM (inactive),> 100 µM (inactive),> 100 µM,> 100 µM (inactive),> 100 µM (inactive),> 100 µM (inactive),> 100 µM (inactive),> 100 µM (inactive),> 100 µM (inactive),> 100 µM (inactive),> 100 µM (inactive),> 100 µM (inactive),> 100 µM (inactive),> 100 µM (inactive),–
N=C(NC(=S)N1CCCCC1)N1CCCCC1,> 100 µM (inactive),> 100 µM (inactive),> 100 µM (inactive),> 100 µM,> 100 µM (inactive),> 100 µM (inactive),> 100 µM (inactive),> 100 µM (inactive),> 100 µM (inactive),> 100 µM (inactive),> 100 µM (inactive),> 100 µM (inactive),> 100 µM (inactive),> 100 µM (inactive),> 100 µM (inactive),> 100 µM (inactive)
C(=C\c1ccc2ccccc2c1Nc1ccccc1)/c1ccccc1,49.3 µM (inactive),11.9 µM (inactive),> 100 µM (inactive),> 100 µM,29.6 µM (inactive),11.9 µM (inactive),18.7 µM (inactive),15.2 µM (inactive),> 100 µM (inactive),8.22 µM (inactive),46 µM (inactive),28 µM (inactive),15.7 µM (inactive),44.5 µM (inactive),51.9 µM (inactive),15.2 µM (inactive)
O=C1[C@@H](c2ccc(Cl)cc2)[C@H]2CC=C[C@H]2N1O,> 100 µM (inactive),51.2 µM (inactive),> 100 µM (inactive),91.4 µM,> 100 µM (inactive),> 100 µM (inactive),> 100 µM (inactive),66.1 µM (inactive),–,14.3 µM (inactive),> 100 µM (inactive),> 100 µM (inactive),> 100 µM (inactive),> 100 µM (inactive),> 100 µM (inactive),–
CC1(C)O[C@H]2[C@H](O)C[C@](O)(CO)C[C@H]2O1,> 100 µM (inactive),–,> 100 µM (inactive),> 100 µM,> 100 µM (inactive),> 100 µM (inactive),> 100 µM (inactive),> 100 µM (inactive),> 100 µM (inactive),> 100 µM (inactive),> 100 µM (inactive),> 100 µM (inactive),48.2 µM (inactive),> 100 µM (inactive),> 100 µM (inactive),> 100 µM (inactive)
CC1=C2C(c3ccccc3)(c3ccccc3)C3C=CC2(C=N3)N(C(=O)NC2CCCCC2)C1=O (configuration not stated),16.9 µM (inactive),16.5 µM (inactive),14.8 µM (inactive),16.4 µM,–,17.5 µM (inactive),17.5 µM (inactive),17.4 µM (inactive),17.7 µM (inactive),–,16.7 µM (inactive),17.6 µM (inactive),–,–,18.7 µM (inactive),17.1 µM (inactive)
CCNC1=Nc2ccc(Cl)cc2C(c2ccccc2)=NN1,35.7 µM (inactive),38.4 µM (inactive),45.9 µM (inactive),16.9 µM,15.8 µM (inactive),6.38 µM (inactive),17.3 µM (inactive),25.2 µM (inactive),21.8 µM (inactive),25.5 µM (inactive),17.5 µM (inactive),41.7 µM (inactive),19 µM (inactive),28.4 µM (inactive),14.6 µM (inactive),–
COC(=O)c1cc2c(nc1C)-c1ccccc1OS2(=O)=O,> 100 µM (inactive),> 100 µM (inactive),> 100 µM (inactive),> 100 µM,> 100 µM (inactive),> 100 µM (inactive),> 100 µM (inactive),> 100 µM (inactive),> 100 µM (inactive),32.6 µM (inactive),–,81.3 µM (inactive),17.9 µM (inactive),83.2 µM (inactive),> 100 µM (inactive),> 100 µM (inactive)
CSc1nc2c(c(O)c(C)c(=O)n2C2OC(COC(C)=O)C(OC(C)=O)C(OC(C)=O)C2OC(C)=O)c(=O)n1C (configuration not stated),> 100 µM (inactive),> 100 µM (inactive),> 100 µM (inactive),> 100 µM,> 100 µM (inactive),> 100 µM (inactive),> 100 µM (inactive),–,> 100 µM (inactive),> 100 µM (inactive),> 100 µM (inactive),> 100 µM (inactive),> 100 µM (inactive),> 100 µM (inactive),> 100 µM (inactive),–
Cc1ccc(C2=C(c3ccccc3)C(O)(c3ccccc3)C(c3ccccc3)=C2c2ccc(C)cc2)cc1,> 100 µM (inactive),> 10 µM (inactive),64 µM (inactive),35.2 µM,46.2 µM (inactive),> 100 µM (inactive),83.8 µM (inactive),7.93 µM (inactive),> 100 µM (inactive),> 100 µM (inactive),> 100 µM (inactive),> 100 µM (inactive),> 100 µM (inactive),77.4 µM (inactive),–,> 100 µM (inactive)
ON=C1CCC(c2ccccc2)CC1 (configuration not stated),> 100 µM (inactive),> 100 µM (inactive),> 100 µM (inactive),> 100 µM,> 100 µM (inactive),> 100 µM (inactive),> 100 µM (inactive),–,> 100 µM (inactive),> 100 µM (inactive),> 100 µM (inactive),> 100 µM (inactive),> 100 µM (inactive),> 100 µM (inactive),> 100 µM (inactive),–
O=[N+]([O-])c1c(/C=N/c2ccccc2)oc(-c2ccc3c(c2)OCO3)c1-c1ccc2c(c1)OCO2,> 100 µM (inactive),–,–,> 100 µM,> 100 µM (inactive),> 100 µM (inactive),> 100 µM (inactive),> 100 µM (inactive),> 100 µM (inactive),> 100 µM (inactive),> 100 µM (inactive),> 100 µM (inactive),50.2 µM (inactive),> 100 µM (inactive),> 100 µM (inactive),> 100 µM (inactive)
O=C(O)COc1ccc(C(=O)/C(SS/C(C(=O)c2ccc(OCC(=O)O)c(Cl)c2Cl)=C2\C=C(c3ccc(Cl)cc3)SS2)=C2/C=C(c3ccc(Cl)cc3)SS2)c(Cl)c1Cl,21.4 µM (inactive),2.29 µM (inactive),57.1 µM (inactive),5.78 µM,34.5 µM (inactive),2.43 µM (inactive),13.5 µM (inactive),3.58 µM (inactive),30.1 µM (inactive),–,25.2 µM (inactive),8.99 µM (inactive),11.1 µM (inactive),24.7 µM (inactive),9.51 µM (inactive),–
CCN(CC)CCOc1ccc(C(=C2CCCCC2)c2ccc(OCCN(CC)CC)cc2)cc1,1.62 µM (inactive),0.931 µM (active),1.74 µM (inactive),1.54 µM,1.1 µM (active),0.267 µM (active),1.55 µM (inactive),0.612 µM (active),1.79 µM (inactive),1.59 µM (inactive),1.32 µM (inactive),1.73 µM (inactive),1.45 µM (inactive),1.5 µM (inactive),–,–
c1ccc([B-]23Oc4ccccc4[NH+]2c2ccccc2O3)cc1 (configuration not stated),> 100 µM (inactive),29.6 µM (inactive),> 100 µM (inactive),–,> 100 µM (inactive),36.2 µM (inactive),> 100 µM (inactive),25.8 µM (inactive),> 100 µM (inactive),> 100 µM (inactive),> 100 µM (inactive),> 100 µM (inactive),> 100 µM (inactive),47.2 µM (inactive),> 100 µM (inactive),37 µM (inactive)
C=C(C)[C@H](O)C(O)CC(C)[C@@H]1CCC23CC12CCC1[C@@]2(C)CCC(OC(C)=O)C(C)(C)C2CC(OC2OC(COC(C)=O)C(O)C(O)C2O)[C@]13C (some centres not stated),6.21 µM (inactive),2.62 µM (inactive),6.67 µM (inactive),4.86 µM,3.06 µM (inactive),2.42 µM (inactive),3.41 µM (inactive),2.34 µM (inactive),7.69 µM (inactive),2.9 µM (inactive),7.19 µM (inactive),5.9 µM (inactive),3.4 µM (inactive),6.55 µM (inactive),3.84 µM (inactive),–
